Source: US4849425A, “Readily absorbable pharmaceutical composition” (Ishihara Sangyo Kaisha Ltd., priority 1985, dated 1989)

Experiment: Absorbability through the gut, oral, aqueous and non-aqueous dispersing solvents, plasma concentration in rats (Test Example 5)
Format: in vivo, Wistar male rats
Conditions: rat; for absorption: oral; for concentration at 1 h / concentration at 3 h / concentration at 5 h / concentration at 24 h: plasma, po, 20 mg/kg
Procedure: 20 mg of Compound No. 3 was taken into a mortar, and 5 ml of an aqueous solution containing 1.7% of β-type cyclodextrin or 2% or 40% of dimethyl β-type cyclodextrin was added under stirring to obtain a suspension of Compound No. 3. The suspension was orally administered by an oral sonde to a group of three Wistar male rats (body weight: 200-250g). The dose of Compound No. 3 was 20 mg/kg rat body weight. Further, Compound No. 3 was likewise suspended in an aqueous solution containing 0.5% of sodium salt of carboxymethyl cellulose, and the suspension was used as the control ( in FIG. 3). After the administration, the blood was periodically sampled, and the plasma was separated. After the removal of protein by acetonitrile, Compound No. 3 in the plasma was quantitatively analyzed by a high speed liquid chromatography as shown in Test Example 1.
The changes with time of the concentration of Compound No. 3 in the plasma after the oral administration were studied in the same manner as in Test Example 3 by using an aqueous solution of 10% (weight/volume) hydroxypropyl cellulose (HPC-L, manufactured by Nippon Soda Co., Ltd.), 2.5% (weight/volume) methyl cellulose (Metrose SM 15,manufactured by Shin-Etsu Chemical Co., Ltd.), 10% (weight/volume) hydroxypropylmethyl cellulose (Metrose TC5R, manufactured by Shin-Etsu Chemical Co., Ltd.), 2.5% (weight/volume) sodium salt of carboxymethyl cellulose (manufactured by Wako Junyaku K.K.), 10% (weight/volume) sucrose fatty acid ester (P1570, manufactured by Hishito K.K.) or 10% (weight/volume) pluronic F 68 (manufactured by Asahi Denka Kogyo K.K.), as an aqueous dispersing solvent for Compound No. 3, and medium-chain length fatty acid triglyceride (ODO, manufactured by Nisshin Seiyu K.K.), ODO containing 5% (weight/volume) sucrose fatty acid ester (S-370F, manufactured by Hishito K.K.), or a refined soybean oil (The Green Cross Corporation) or refined sesame oil (Takemoto Yushi K.K.) containing 5% (weight/volume) of S-370F, as a non-aqueous dispersing solvent, and an aqueous solution of 50% (weight/volume) dimethyl β-type cyclodextrin and an aqueous solution of 0.5% (weight/volume) sodium carboxymethyl cellulose, as the control.

[1] = 0.5% (w/v) sodium salt of carboxymethyl cellulose (control), oral 20 mg/kg
[2] = 2.5% (w/v) methyl cellulose, oral 20 mg/kg
[3] = 2.5% (w/v) sodium salt of carboxymethyl cellulose, oral 20 mg/kg
[4] = 5% (w/v) Pluronic F31/ODO, oral 20 mg/kg
[5] = 5% (w/v) sucrose fatty acid ester/ODO, oral 20 mg/kg
[6] = 5% (w/v) sucrose fatty acid ester/refined sesame oil, oral 20 mg/kg
[7] = 5% (w/v) sucrose fatty acid ester/refined soybean oil, oral 20 mg/kg
[8] = 10% (w/v) Pluronic F68, oral 20 mg/kg
[9] = 10% (w/v) hydroxypropyl cellulose, oral 20 mg/kg
[10] = 10% (w/v) hydroxypropylmethyl cellulose, oral 20 mg/kg
[11] = 10% (w/v) sucrose fatty acid ester, oral 20 mg/kg
[12] = 50% (w/v) dimethyl β-type cyclodextrin, oral 20 mg/kg
[13] = medium-chain length fatty acid triglyceride (ODO), oral 20 mg/kg

Structure (SMILES): O=C(NC(=O)c1ccccc1[N+](=O)[O-])Nc1ccc(Oc2ncc(Br)cn2)c(Cl)c1 [Compound No. 3, N-(2-nitrobenzoyl)-N'-[4-(5-bromo-2-pyrimidinyloxy)-3-chlorophenyl]urea]
- absorption (50% (w/v) dimethyl β-type cyclodextrin, among the aqueous dispersing solvents): highest absorption
- absorption (ODO containing 5% (w/v) Pluronic F32): high absorption
- concentration at 1 h [1]: 30 ng/mL
- concentration at 3 h [1]: 100 ng/mL
- concentration at 5 h [1]: 150 ng/mL
- concentration at 24 h [1]: 10 ng/mL
- concentration at 1 h [2]: 60 ng/mL
- concentration at 3 h [2]: 110 ng/mL
- concentration at 5 h [2]: 110 ng/mL
- concentration at 24 h [2]: 30 ng/mL
- concentration at 1 h [3]: 40 ng/mL
- concentration at 3 h [3]: 110 ng/mL
- concentration at 5 h [3]: 90 ng/mL
- concentration at 24 h [3]: 90 ng/mL
- concentration at 1 h [4]: 100 ng/mL
- concentration at 3 h [4]: 200 ng/mL
- concentration at 5 h [4]: 220 ng/mL
- concentration at 24 h [4]: 470 ng/mL
- concentration at 1 h [5]: 60 ng/mL
- concentration at 3 h [5]: 180 ng/mL
- concentration at 5 h [5]: 200 ng/mL
- concentration at 24 h [5]: 220 ng/mL
- concentration at 1 h [6]: 140 ng/mL
- concentration at 3 h [6]: 490 ng/mL
- concentration at 5 h [6]: 570 ng/mL
- concentration at 24 h [6]: 370 ng/mL
- concentration at 1 h [7]: 120 ng/mL
- concentration at 3 h [7]: 500 ng/mL
- concentration at 5 h [7]: 550 ng/mL
- concentration at 24 h [7]: 390 ng/mL
- concentration at 1 h [8]: 110 ng/mL
- concentration at 3 h [8]: 190 ng/mL
- concentration at 5 h [8]: 230 ng/mL
- concentration at 24 h [8]: 120 ng/mL
- concentration at 1 h [9]: 50 ng/mL
- concentration at 3 h [9]: 120 ng/mL
- concentration at 5 h [9]: 110 ng/mL
- concentration at 24 h [9]: 40 ng/mL
- concentration at 1 h [10]: 140 ng/mL
- concentration at 3 h [10]: 310 ng/mL
- concentration at 5 h [10]: 280 ng/mL
- concentration at 24 h [10]: 100 ng/mL
- concentration at 1 h [11]: 40 ng/mL
- concentration at 3 h [11]: 180 ng/mL
- concentration at 5 h [11]: 180 ng/mL
- concentration at 24 h [11]: 240 ng/mL
- concentration at 1 h [12]: 280 ng/mL
- concentration at 3 h [12]: 580 ng/mL
- concentration at 5 h [12]: 490 ng/mL
- concentration at 24 h [12]: 360 ng/mL
- concentration at 1 h [13]: 120 ng/mL
- concentration at 3 h [13]: 170 ng/mL
- concentration at 5 h [13]: 210 ng/mL
- concentration at 24 h [13]: 240 ng/mL
- absorption (refined soybean oil or refined sesame oil containing 5% (w/v) sucrose fatty acid ester, among the non-aqueous dispersing solvents): high absorption almost equal to dimethyl β-type cyclodextrin
